Measured values published in patent publication US20220325242A1, “IDH2 INHIBITION FOR PRODUCING T-CELLS AND B-CELLS WITH A MEMORY PHENOTYPE” (Universite de Lausanne, priority 2019, published 2022).

Columns and labels:
[1] = tested on: OT1 CD8+ T-cells; assay: Flow cytometry of surface activation and memory markers on in vitro cultured OT1 CD8+ T-cells; format: cell-based, mouse; settings: 5 μM inhibitor day 0-3, flow cytometry on day 3 and 7
Procedure: Example 2. In vitro culture of splenocytes comprising CD8+ T-cells. OT1 splenocytes (as described in Example 1) were cultured for 3 days at a concentration of 10^6 cells per mL in RPMI medium (Gibco 61870-01) supplemented with 10% FCS, (Gibco 10270-106), 1% Penicillin/Streptomycin (P/S; Gibco 15070-063), 0.1% 13-mercaptoethanol, 1% HEPES (Gibco 15630-080), 1× Non-essential amino acids (Gibco 11140-035), 1% L-glutamine (Gibco 25030-081), 1 mM Sodium Pyruvate (Gibco 11360-039), 100 U/m1 hIL-2 (Glaxo-IMB) and 1 μg/ml ovalbumin N4 peptide (SIINFEKL). To evaluate the effects of IDH2 inhibition on T-cell differentiation, 5 μM of a small molecule IDH2 inhibitor (AG221 or AGI6780) or a DMSO solvent control was added during this 3-day culture period. At day 3, a fraction of the splenocytes was collected and the remaining cells were cultured for 4 additional days with 100 U/ml hIL-2 and 10 ng/ml hIL-7 (Peprotech 200-07) supplementation after washing out the inhibitors and the ovalbumine N4 peptide (FIG. 1). At day 3 and day 7, the activation and differentiation state of CD8+ T-cells was determined by gene expression analysis, flow cytometry and extracellular metabolic flux analyses (see Example 3).
Cells were incubated in a live/dead stain (Fixable aqua dead cell stain kit, Invitrogen) followed by an incubation with different antibody panels.
Antibody panel to determine the differentiation and activation state of in vitro cultured T-cells (see Examples 2 and 4): anti-CD8-PE-texas-Red, anti-CD62L-FITC, anti-CD127-PE, anti-CD27-PerCP-Cy5.5, anti-CD71-PE-Cy7, anti-CD44-APC-Cy7, anti-CD98-APC, anti-CD25-Pacific blue (BD Pharmingen and eBioscience, San Diego, Calif., USA). All those antigens are surface molecules. Cells were gated on living single CD8+ cells before analysis of activation and memory marker expression. For the unstained control, cells were stained with the live/dead stain and anti-CD8-PE-texas-Red.
Cells were acquired on LSR-II flow cytometers from the flow cytometry facility of UNIL and data were analyzed with FlowJo™ 10 software. Antibodies were purchased from BD Phamingen (San Diego, Calif., USA), eBioscience (San Diego, Calif., USA, and Biolegend (San Diego, Calif., USA).

[2] = tested on: human CD8+ T-cells; assay: Cytokine expression after PMA and Ionomycin restimulation of human CBMC-derived T-cells; format: cell-based; settings: day 11 cells, inhibitors washed out, PMA and ionomycin 4 hours
Procedure: Methods: Mononuclear Cells were isolated from fresh umbilical cord blood on a Percoll Gradient (CBMCs). 10^4 CBMC's were seeded per well in a round bottom 96-well plate in RPMI with 10% human serum, and activated with (magnetic) αCD3/CD28 at a 1:2 cell:bead ratio and 300 U/ml rhIL-2, in the presence of 5 μM AG221 or DMSO, or 1 μM MK2206 (AKT inhibitor). After 11 days of culture, CD62L expression was analyzed by flow cytometry on a fraction of the cells (FIG. 15A). The other cells were washed 2 times and placed in a magnet to remove the inhibitors and the αCD3/CD28 beads. The cells were then rested for 4 hours before restimulating them for 4 hours with 1 ng/ml Phorbol 12-Myristate 13-Acetate (PMA, a PKC activator) and 50 μg/ml Ionomycin (a Ca^2+ ionophore, activating NF-KB and NFAT) in the presence of 50 μ/ml golgi inhibitor (Brefeldin A, BFA), allowing for the measurement of intracellular accumulation of different cytokines by flow cytometry.

[3] = tested on: human CD4 T cells (CD3-positive/CD8-negative); assay: CD62L expression in whole culture and in CD4 T cells, human culture (FIG. 16); format: cell-based
Text: FIG. 16: Phenotypic analysis of human bulk PBMC at day 11 post in vitro activation. (A,B) Quantification of flow cytometry analysis at day 11 post-activation showing the percentage of CD62L+ CD8 T cells in the CD3/CD8 double positive T cell population (A) or in all living cells (B) from a culture of PBMCs treated with AKTi (MK2206), IDH2i (AG221) or DMSO control. (C,D) Quantification of flow cytometry analysis at day 11 post-activation showing the percentage of CD62L+ CD4 T cells in the CD3-positive/CD8-negative T cell population (C) or in all living cells (D). (E,F) Quantification of flow cytometry analysis at day 11 post-activation showing the percentage of CD8 T cells (E, identified as CD3/CD8 double positive) and CD4 T cells (F, identified as CD3-positive/CD8-negative) in all living cells of a culture of PBMCs treated with AKTi (MK2206), IDH2i (AG221) or DMSO control. *p<0.05, compared to DMSO Graphs show mean±SEM.
The previously obtained data has undergone additional analyses, in order to obtain more insight in CD62L expression in the whole culture as well as in CD4 T cells. In the human figure A and B, we now clearly made the distinction between CD62L expression as percentage out of CD8 T cells (FIG. 16A) or out of all living cells in the culture (FIG. 16 B).
As mentioned before, about 98% of the cells in culture on day 11 are CD3-positive. Since CD3 is exclusively expressed on CD4 and CD8 T cells, we can deduct that all CD3-positive, CD8-negative must be CD4 T cells. When analyzing the CD3-pos/CD8-neg population we observed that CD62L expression is induced upon AG221 treatment, both when expressed as percentage out of CD4 T cells (FIG. 16 C) and as percentage out of total living cells (FIG. 16 D). […] This can be explained by our observation that AKT inhibition favors CD8 T cell differentiation over CD4 T cell differentiation. This ratio remains unchanged upon AG221-treatment, as compared to DMSO control (FIG. 16 E and F).

## CC(C)(O)CNc1nc(Nc2ccnc(C(F)(F)F)c2)nc(-c2cccc(C(F)(F)F)n2)n1 [AG221, 2-methyl-1-[[4-[6-(trifluoromethyl)pyridin-2-yl]-6-[[2-(trifluoromethyl)pyridin-4-yl]amino]-1,3,5-triazin-2-yl]amino]propan-2-ol]
[1]
  CD62L surface expression compared to DMSO: increased
  other surface markers (CD25, CD44, CD71, CD98, CD27, CD127) compared to DMSO: generally unchanged
[2]
  TNF expression upon restimulation: unaffected
  expression of effector cytokine IFNγ upon restimulation: significant upregulation
  production of IL-2 upon restimulation: unaltered
[3]; day 11, compared to DMSO control
  CD8 T cell versus CD4 T cell differentiation (ratio in all living cells): unchanged
[3]; day 11, versus DMSO
  CD62L expression in CD3-pos/CD8-neg population, as percentage out of CD4 T cells: induced
  CD62L+ CD4 T cells as percentage out of total living cells: induced
